“Also recorded” adds a separate entry of the source. Like-named read-outs stand apart in the source and are kept apart here.
How the values were obtained:
P2Y2 receptor [1] = molecular target: T1, P2Y2 receptor (Rattus norvegicus, UniProt P41232); conditions: reversible fashion; cited from earlier work
T1 construct: Freshly prepared IMCD-enriched fractions were incubated at 37.degree; C. under physiological conditions; from tissue; host or cells: rat kidney inner medulla / inner medullary collecting duct (IMCD) preparations
T1 sequence (P41232 whole entry): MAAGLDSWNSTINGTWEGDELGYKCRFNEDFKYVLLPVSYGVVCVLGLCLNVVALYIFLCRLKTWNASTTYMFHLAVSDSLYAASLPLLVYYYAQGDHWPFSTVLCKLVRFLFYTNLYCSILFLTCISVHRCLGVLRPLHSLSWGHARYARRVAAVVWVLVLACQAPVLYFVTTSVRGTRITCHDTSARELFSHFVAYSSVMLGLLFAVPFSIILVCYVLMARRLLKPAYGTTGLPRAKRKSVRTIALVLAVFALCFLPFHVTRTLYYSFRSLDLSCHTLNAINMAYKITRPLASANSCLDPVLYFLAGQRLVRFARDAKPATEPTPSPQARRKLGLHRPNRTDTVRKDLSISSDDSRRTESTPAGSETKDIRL

P2Y11 = molecular target: T2, P2Y11 (Homo sapiens, UniProt Q96G91); conditions: cDNA library source: Human placenta; cited from earlier work
T2 sequence (Q96G91 1-374): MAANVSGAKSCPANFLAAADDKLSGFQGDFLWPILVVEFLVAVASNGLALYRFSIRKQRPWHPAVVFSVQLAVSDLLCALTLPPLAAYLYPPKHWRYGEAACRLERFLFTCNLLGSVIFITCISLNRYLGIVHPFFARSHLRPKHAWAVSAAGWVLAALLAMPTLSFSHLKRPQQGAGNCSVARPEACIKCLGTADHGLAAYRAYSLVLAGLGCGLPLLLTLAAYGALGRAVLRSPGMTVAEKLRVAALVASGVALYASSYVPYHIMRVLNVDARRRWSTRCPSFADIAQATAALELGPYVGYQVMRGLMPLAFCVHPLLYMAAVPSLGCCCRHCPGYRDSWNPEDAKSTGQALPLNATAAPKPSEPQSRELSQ

P2Y1 [2] = molecular target: P2Y1 (Gallus gallus, UniProt P34996); conditions: cDNA library source: Chick brain; cited from earlier work
Sequence of P2Y1 (Gallus gallus, UniProt P34996) (P34996 whole entry): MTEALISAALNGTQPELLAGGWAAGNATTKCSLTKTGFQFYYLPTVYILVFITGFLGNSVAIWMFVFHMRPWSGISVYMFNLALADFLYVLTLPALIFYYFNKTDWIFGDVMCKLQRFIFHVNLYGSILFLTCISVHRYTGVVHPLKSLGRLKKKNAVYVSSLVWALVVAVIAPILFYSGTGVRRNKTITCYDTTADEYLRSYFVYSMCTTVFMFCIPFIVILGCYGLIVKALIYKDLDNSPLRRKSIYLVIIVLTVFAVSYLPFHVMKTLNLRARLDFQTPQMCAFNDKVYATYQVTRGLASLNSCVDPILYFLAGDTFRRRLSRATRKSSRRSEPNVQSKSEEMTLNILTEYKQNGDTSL

P2Y1 [3] = molecular target: P2Y1 (Meleagris gallopavo, UniProt P49652); conditions: cDNA library source: Turkey brain; cited from earlier work
Sequence of P2Y1 (Meleagris gallopavo, UniProt P49652) (P49652 whole entry): as the sequence (P34996 whole entry) above, with T28S counted along it

P2Y1 [4] = molecular target: P2Y1 (Rattus norvegicus, UniProt P49651); conditions: cited from earlier work
Sequence of P2Y1 (Rattus norvegicus, UniProt P49651) (P49651 whole entry): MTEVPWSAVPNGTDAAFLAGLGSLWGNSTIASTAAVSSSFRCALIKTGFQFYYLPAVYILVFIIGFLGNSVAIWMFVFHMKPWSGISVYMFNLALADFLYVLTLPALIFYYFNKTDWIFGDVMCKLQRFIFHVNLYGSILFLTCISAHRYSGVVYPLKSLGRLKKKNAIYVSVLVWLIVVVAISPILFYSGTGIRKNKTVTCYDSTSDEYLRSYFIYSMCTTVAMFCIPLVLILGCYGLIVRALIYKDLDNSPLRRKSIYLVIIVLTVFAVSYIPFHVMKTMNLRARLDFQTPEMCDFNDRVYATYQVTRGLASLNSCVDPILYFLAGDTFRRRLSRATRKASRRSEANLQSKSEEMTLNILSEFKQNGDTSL

[5] = in vivo; cited from earlier work
[6] = test system: P2Y2 receptor-stimulated PGE2 release by IMCD; experiment: Apyrase treatment in rats: basal and ATPγS-stimulated ex vivo PGE2 release by IMCD; parameters: species or system Sprague-Dawley rats
Description: (§1) It is non-toxic and safe to administer either intravenously or intraperitoneally. Two experiments were conducted. In one experiment Sprague-Dawley rats were divided into two groups (N=4 per group). One group was fed with regular rat chow, while the other was fed regular rat chow to which Lithium Chloride was added to a concentration of 40 mmol/kg wt of the food. Both groups were fed for 14 days without any other treatment. The second experiment was similar to the first one, except that potato apyrase (Sigma Chemical Co) was administered to both regular and lithium-added diet fed rats front day 7 to day 14 at a dose of 100 units/kg body wt. intraperitoneally, three times a day (˜8 hourly intervals). All rats had free access to drinking water. Twenty-four hour urine samples were collected from all rats on day 7 and 14 prior to euthanasia, and analyzed. All rats were euthanized on day 14, and IMCD suspensions were prepared. Basal and ATPγS-stimulated ex vivo PGE2 release by IMCD was determined as per the methods previously established.

[7] = Apyrase treatment day 7 to 14 in lithium-fed and regular diet rats: urine flow; format: in vivo, Sprague-Dawley rats
Description: as §1

V2 receptor = conditions: chronic dDAVP infusion; cited from earlier work
[8] = test system: purinergic-driven PGE2 production by IMCD; conditions: normal rats chronically infused with dDAVP 20 ng/h; cited from earlier work
P2Y2 receptor [9] = conditions: chronic dDAVP infusion; cited from earlier work
P2Y4 = P2Y4 (Homo sapiens, UniProt P51582); conditions: cDNA library source: Human chromosome X; cited from earlier work
Sequence of P2Y4 (P51582 whole entry): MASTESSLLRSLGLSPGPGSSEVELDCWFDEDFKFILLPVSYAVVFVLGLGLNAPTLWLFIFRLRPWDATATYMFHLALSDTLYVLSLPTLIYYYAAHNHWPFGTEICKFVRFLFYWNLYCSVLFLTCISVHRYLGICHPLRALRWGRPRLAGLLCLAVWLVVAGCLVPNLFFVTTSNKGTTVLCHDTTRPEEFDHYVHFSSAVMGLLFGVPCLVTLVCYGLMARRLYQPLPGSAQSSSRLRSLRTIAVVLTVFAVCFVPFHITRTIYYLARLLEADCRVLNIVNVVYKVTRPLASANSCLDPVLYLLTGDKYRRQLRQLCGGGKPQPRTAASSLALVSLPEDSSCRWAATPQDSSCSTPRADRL

[10] = control rats fed with regular diet

In the case of `O=c1ccn([C@@H]2O[C@H](COP(=O)(O)OP(=O)(O)OP(=O)(O)O)[C@@H](O)[C@H]2O)c(=O)[nH]1` [UTP], the “AVP-stimulated osmotic water permeability (Pf)” value (P2Y2 receptor [1]) is given as “decreased”, the Agonist activity (P2Y11) is given as “(UTP, UDP inactive)” and the Agonist activity (P2Y1 [2]) is given as “inactive)”. For the same molecule, the Agonist activity (P2Y1 [3]) was “inactive)” and the Agonist activity (P2Y1 [4]; cDNA library source: Rat ileal myocytes) was “ATP (UTP inactive)”.
In the case of `O=c1ccn([C@@H]2O[C@H](COP(=O)(O)OP(=O)(O)O)[C@@H](O)[C@H]2O)c(=O)[nH]1` [UDP], the Agonist activity (P2Y11) is listed as “(UTP, UDP inactive)”.
For `COc1ccc2c(c1)c(CC(=O)O)c(C)n2C(=O)c1ccc(Cl)cc1` [indomethacin], the “polyuria of acquired NDI” value [5] is listed as “prevented the polyuria; also recorded: ameliorated”.
For apyrase, the “P2Y2-mediated PGE2 release by IMCD” value [6, 10] was “did not change”, the “P2Y2 receptor-stimulated PGE2 release by IMCD” value ([6]; lithium-fed rats, compared to apyrase-untreated lithium-fed rats) was “significantly decreased” and the urine output [7, 10] was “did not change”. For the same molecule, the “urine flow induced by lithium” value ([7]; lithium-fed rats, apyrase day 7 to 14, 100 units/kg intraperitoneally three times a day) was “prevented further increase in the urine flow”.
For dDAVP, the “expression of V2 receptor mRNA” value (V2 receptor) is given as “did not change significantly”, the “purinergic-driven PGE2 production by IMCD” value [8] is given as “significantly decreased” and the “mRNA expression of P2Y2 receptor, down-regulated to” value (P2Y2 receptor [9]) is given as 54%. For the same molecule, the “protein abundance of P2Y2 receptor, down-regulated to” value (P2Y2 receptor [9]) was 49%.
In the case of `Nc1ncnc2c1ncn2[C@@H]1O[C@H](COP(=O)(O)OP(=O)(O)OP(=O)(O)O)[C@@H](O)[C@H]1O` [ATP], the “AVP-stimulated osmotic water permeability (Pf)” value (P2Y2 receptor [1]) is listed as “decreased” and the Agonist activity (P2Y4) is listed as “UTP > UDP (ATP inactive)”.
In the case of `Nc1ncnc2c1ncn2[C@@H]1O[C@H](COP(=O)(O)OP(=O)(O)O)[C@@H](O)[C@H]1O` [ADP], the “AVP-stimulated osmotic water permeability (Pf)” value (P2Y2 receptor [1]) is listed as “not”.
For `Nc1ncnc2c1ncn2[C@@H]1O[C@H](COP(=O)(O)CP(=O)(O)OP(=O)(O)O)[C@@H](O)[C@H]1O` [α,β-meATP], the Agonist activity (P2Y1 [4]; cDNA library source: Rat insulinoma cells) is given as “(α,β-meATP inactive)”.
